The test system of one test is pain in mCRPC patients. Description: Same clinical study: pain response and pain progression (BPI-SF). The test is classed as in vivo, human. The settings on record: for Pain progression, HR: cabazitaxel vs abiraterone or enzalutamide. As to the method:
Pain response (PR): was measured using the Brief Pain Inventory-Short Form for pain intensity score and defined as a decrease by >30% from baseline in the Brief Pain Inventory-Short Form pain intensity item scores observed at two consecutive evaluations weeks apart without an increase in analgesic usage score.
Pain response was defined as a decrease≥30% from baseline in BPI-SF pain intensity score with no increased analgesic use. HRQL was assessed using the Functional Assessment of Cancer Therapy-Prostate (FACT-P) questionnaire. Pain intensity was defined using item 3 of the validated Brief Pain Inventory-Short Form (BPI-SF), which rates pain at its worst in the last 24 hours on a scale of 0 (no pain) to 10 (worst imaginable pain). Analgesic consumption was reported by local investigators and coded by the World Health Organization's analgesic ladder (0=no analgesic; 1=non-opioid analgesics; 2=opioid analgesics for moderate pain; 3=opioids for severe pain). […] A clinically meaningful improvement or deterioration of total FACT-P score was defined as a difference of ±10 points from baseline. Clinically meaningful changes in HRQL and pain response were confirmed at two consecutive evaluations≥3 weeks apart during the on-treatment period. Survival curves were generated by Kaplan-Meier estimates.
(§1) Efficacy analysis used all randomized patients. Stratified log-rank tests were used to analyze time-to-event data. The primary analysis compared radiographic progression-free survival between the two treatment groups using a stratified log-rank test. Survival curves were generated using Kaplan-Meier estimates. Hazard ratios and associated 95% confidence intervals [CI] were estimated using a stratified Cox proportional hazards model. Stratified Cochran-Mantel-Haenszel chi-square tests were used to analyze categorical data. Descriptive statistics were used to summarize patient characteristics. The safety population (randomized patients who received at least one dose of study treatment) was used for all safety analyses.

In test [1] the test system is patients with mCRPC who progressed during or after docetaxel. The settings on record: every 3 weeks with prednisone 10 mg daily; cabazitaxel 25 mg/m^2, mitoxantrone 12 mg/m^2; cited from earlier work.
Test [2] relates to symptomatic skeletal events in mCRPC patients. In words: Same clinical study: symptomatic skeletal events (SSE). It is filed as in vivo, human.
From the text: Time to symptomatic skeletal event rate: is defined as the time interval between the date of randomization and the date of the occurrence of the first event defining a symptomatic skeletal event (occurrence of a new symptomatic fracture, use of radiation therapy to relieve bone pain, occurrence of spinal cord compression or cancer-related orthopedic surgical intervention).
SSEs were defined as either the use of external beam radiation to relieve bone pain, occurrence of new symptomatic pathologic fractures, occurrence of spinal cord compression, or tumor-related orthopedic surgical intervention. SSEs were evaluated at baseline, at each visit, at the end of treatment, and every 12 weeks during follow-up. Standard imaging (bone scans and computed tomography or magnetic resonance imaging of the pelvis, abdomen, and chest) was scheduled at baseline and every 12 weeks until imaging-based disease progression. Pathologic fractures and spinal cord compression were assessed by imaging as needed throughout the study. Time to SSE was defined as time from randomization until first documented SSE.
as §1

Marks after values point to notes of the source that are not given here.

On to `CO[C@H]1C(=O)[C@]2(C)[C@@H](OC)C[C@H]3OC[C@@]3(OC(C)=O)[C@H]2[C@H](OC(=O)c2ccccc2)[C@]2(O)C[C@H](OC(=O)[C@H](O)[C@@H](NC(=O)OC(C)(C)C)c3ccccc3)C(C)=C1C2(C)C` [Cabazitaxel, 4α-acetoxy-2α-benzoyloxy-5β,20-epoxy-1p-hydroxy-7β,10β-dimethoxy-9-oxo-11-taxen-13α-yl (2R,3S)-3-tert-butoxycarbonylamino-2-hydroxy-3-phenylpropionate], for which the “Pain (BPI-SF), Kaplan-Meier probability of no deterioration at 3 months” value in the test on pain in mCRPC patients (3 months) worked out at 87.8. Besides, the “Probability of not having pain progression after 12 months” value with pain in mCRPC patients (12 months) is on record as 66.2%. For the same compound, the “Pain progression, HR” value in the test with pain in mCRPC patients was 0.55*; in the test on pain in mCRPC patients (listed as cabazitaxel), 0.55. In addition, the “Patients with a confirmed pain response” value in the test on pain in mCRPC patients (evaluable 111 and 109) amounted to 50 n; with pain in mCRPC patients (evaluable patients, listed as cabazitaxel), 45.0%. For the same compound, the “Median time to pain progression (BPI-SF)” value in the test on pain in mCRPC patients (human, in vivo) was “NE (NE-NE)”; with pain in mCRPC patients (human, in vivo, listed as cabazitaxel), “not reached”. Also, the “Pain (BPI-SF) deterioration events” value in the test with pain in mCRPC patients (human, in vivo) is listed as 22.5%. In addition, in the test on pain in mCRPC patients (human, in vivo), the “Pain (BPI-SF) deterioration events, n/nT” value is 25/111. In addition, the “Median overall survival, TROPIC trial” value in test [1] is recorded as 15.1 months. Moreover, in test [2] (18 months), the “Patients estimated to have a symptomatic skeletal event at 18 months” value is given as 28.8%. In addition, the “Kaplan-Meier probability of not having symptomatic skeletal events” value in test [2] (at 3 months) came out at 92.6%; in test [2] (at 6 months), 85.8%; in test [2] (at 12 months), 79.4%; in test [2] (at 18 months) it was 71.2%. The “Time to symptomatic skeletal events, hazard ratio” value in test [2] (cabazitaxel vs androgen signaling targeted inhibitor) stood at 0.59. In addition, in test [2] (human, in vivo), the “Surgery to the bone (first SSE)” value was 0 n.

Source of the values: patent publication US20210244704A1, “Cabazitaxel in mCRPC Patients Previously Treated with Docetaxel and Who Failed a Prior androgen signaling targeted inhibitor Agent” (SANOFI MATURE IP, priority 2019, published 2021).
